Experimental data as given in patent publication US20220372031A1, “NOVEL TRICYCLIC AROMATIC HETEROCYCLIC COMPOUND, PREPARATION METHOD THEREFOR, PHARMACEUTICAL COMPOSITION AND APPLICATION THEREOF” (SHANGHAI LONGWOOD BIOPHARMACEUTICALS CO., LTD., priority 2019, published 2022).

Target: T1, PD-1/PD-L1 (Homo sapiens, UniProt Q9NZQ7)
T1 construct: Recombinant human PD-L1 protein (19-238) with a His-tagged at the C-terminus; purchased AcroBiosystems PD1-H5229 (PD-L1); PD1-H5257 (PD-1)
Test: PD-1/PD-L1 homogeneous time-resolved fluorescence (HTRF) binding assay
Details: PD-1/PD-L1 HTRF binding, ~3 nM PD1, 10 nM PD-L1, 25° C., PBS pH 7.4
Experimental: Assays were performed in standard black 384-well polystyrene plates and a final volume was 20 μL. The inhibitor was first serially diluted with DMSO and added to the wells of the plate, followed by the addition of other reaction components. The final concentration of DMSO in the assay was 1%. Assays were performed at 25° C. in PBS buffer (pH 7.4) containing 0.05% Tween-20 and 0.1% BSA. Recombinant human PD-L1 protein (19-238) with a His-tagged at the C-terminus was purchased from AcroBiosystems (PD1-H5229). Recombinant human PD-1 protein (25-167) with an Fc tag at the C-terminus was also purchased from AcroBiosystems (PD1-H5257). The PD-L1 and PD-1 proteins were diluted in assay buffer and then […] of the solution was extracted and added to the wells of the plate. Plates were centrifuged and proteins and inhibitors were preincubated for 40 minutes. After incubation, 0.1 μl of HTRF detection buffer containing europium […] labeled anti-human IgG (PerkinElmer-AD0212), Fc-specific and anti-His SureLight®-Allophycocyanin (APC, PerkinElmer-AD0059H) conjugated antibodies was added. After centrifugation, the plates were incubated at 25° C. for 60 minutes. Data was read in a PHERAstar FS plate reader (665 nm/620 nm ratio). Final concentrations in the assay were ˜3 nM PD1, 10 nM PD-L1, 1 nM europium anti-human IgG, and 20 nM anti-His-allophycocyanin. Activity data were fitted using GraphPad Prism 5_0 software to derive IC50 values for inhibitors.

T1 sequence (Q9NZQ7 19-238): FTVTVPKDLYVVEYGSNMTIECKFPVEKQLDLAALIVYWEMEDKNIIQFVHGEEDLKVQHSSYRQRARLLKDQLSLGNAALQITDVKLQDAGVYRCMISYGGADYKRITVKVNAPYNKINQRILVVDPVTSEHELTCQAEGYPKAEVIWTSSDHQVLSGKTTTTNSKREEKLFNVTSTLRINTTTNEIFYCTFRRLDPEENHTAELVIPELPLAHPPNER

| Structure (SMILES) | IC50 [nM] |
| --- | --- |
| Cc1c(Nc2nccc3cc(CN4CC[C@@H](O)C4)cnc23)cccc1-c1cccc(-c2cc3cc4c(c([N+](=O)[O-])c3o2)CCCC4N2CC(C(=O)O)C2)c1C (stereo partly drawn) [Compound 001] | ≤ 10 |
| Cc1c(Nc2nccc3cc(CN4CC[C@@H](O)C4)cnc23)cccc1-c1cccc(-c2cc3cc4c(c(C#N)c3o2)CCCC4N2CC(C(=O)O)C2)c1C (stereo partly drawn) [Compound 002] | ≤ 10 |
| COc1nc(-c2cccc(-c3cccc(-c4cc5cc6c(c(C#N)c5o4)CCC6N4CC[C@@H](C(=O)O)C4)c3C)c2C)cnc1CN1CC[C@@H](O)C1 (stereo partly drawn) [Compound 003] | ≤ 10 |
| Cc1c(Nc2nccc3cc(CN4CC[C@@H](O)C4)cnc23)cccc1-c1cccc(-c2nc3cc4c(c(C#N)c3o2)CCC4N2CC[C@@H](C(=O)O)C2)c1C (stereo partly drawn) [Compound 004] | ≤ 10 |
| N#Cc1c2c(cc3nc(-c4cccc(-c5cccc(Nc6nccc7cc(CN8CC[C@@H](O)C8)cnc67)c5Cl)c4Cl)oc13)C(N1CC[C@@H](C(=O)O)C1)CC2 (stereo partly drawn) [Compound 005] | ≤ 10 |
| Cc1c(Nc2nccc3cc(CN4CC[C@@H](O)C4)cnc23)cccc1-c1cccc(-c2nc3cc4c(c(C#N)c3o2)CC[C@H]4N2CC[C@@H](C(=O)O)C2)c1C [Compound 007] | ≤ 10 |
| Cc1c(Nc2nccc3cc(CN4CC[C@@H](O)C4)cnc23)cccc1-c1cccc(-c2nc3cc4c(c(C#N)c3o2)CCC4N2CC[C@@H](C(=O)NS(=O)(=O)C3CC3)C2)c1C (stereo partly drawn) [Compound 009] | ≤ 10 |
| Cc1c(Nc2nccc3cc(CN4CC[C@@H](O)C4)cnc23)cccc1-c1cccc(-c2nc3cc4c(c(C#N)c3o2)CCC4N2CC[C@@H](C(N)=O)C2)c1C (stereo partly drawn) [Compound 010] | ≤ 10 |
| N#Cc1c2c(cc3nc(-c4cccc(-c5cccc(Nc6nccc7cc(CN8CC[C@@H](O)C8)cnc67)c5Cl)c4Cl)oc13)[C@@H](NCCC(=O)O)CC2 [Compound 011] | ≤ 10 |
| N#Cc1c2c(cc3nc(-c4cccc(-c5cccc(Nc6nccc7cc(CN8CC[C@@H](O)C8)cnc67)c5Cl)c4Cl)oc13)[C@@H](NCC(=O)O)CC2 [Compound 012] | ≤ 10 |
| Cc1c(Nc2nc(N)nc3cc(CN4CC[C@@H](O)C4)cnc23)cccc1-c1cccc(-c2nc3cc4c(c(C#N)c3o2)CC[C@H]4N2CC[C@@H](C(=O)O)C2)c1C [Compound 015] | ≤ 10 |
| Cc1c(Nc2nc(C(F)F)nc3cc(CN4CC[C@@H](O)C4)cnc23)cccc1-c1cccc(-c2nc3cc4c(c(C#N)c3o2)CC[C@H]4N2CC[C@@H](C(=O)O)C2)c1C [Compound 016] | ≤ 10 |
| Cc1c(Nc2nccc3cc(CN4CC[C@@H](O)C4)cnc23)cccc1-c1cccc(-c2cc3cc4c(c(C#N)c3o2)CCC4N2CC[C@@H](C(=O)O)C2)c1C (stereo partly drawn) [Compound 018] | ≤ 10 |
| Cc1c(Nc2nccc3cc(CN4CC[C@@H](O)C4)cnc23)cccc1-c1cccc(-c2cc3cc4c(c(C#N)c3o2)CCC4N2CC[C@@H](O)C2)c1C (stereo partly drawn) [Compound 020] | ≤ 10 |
| Cc1c(Nc2nccc3cc(CN4CC[C@@H](O)C4)cnc23)cccc1-c1cccc(-c2nc3cc4c(c(C#N)c3o2)CCC4N2CC[C@@H](C(=O)O)C2)c1Cl (stereo partly drawn) [Compound 026] | ≤ 10 |
| N#Cc1c2c(cc3nc(-c4cccc(-c5cccc(Nc6nccc7cc(CN8CC[C@@H](O)C8)cnc67)c5Cl)c4Cl)oc13)[C@H](N1CC[C@@H](C(=O)O)C1)CC2 [Compound 030] | ≤ 10 |
| N#Cc1c2c(cc3nc(-c4cccc(-c5cccc(Nc6nccc7cc(CN8CC[C@@H](O)C8)cnc67)c5Cl)c4Cl)oc13)[C@H](NCCC(=O)O)CC2 [Compound 031] | ≤ 10 |
| COc1nc(-c2cccc(-c3cccc(-c4nc5cc6c(c(C#N)c5o4)CC[C@H]6N4CC[C@@H](C(=O)NS(=O)(=O)C5CC5)C4)c3Cl)c2Cl)ccc1CN1CC[C@@H](O)C1 [Compound 035] | ≤ 10 |
| COc1nc(-c2cccc(-c3cccc(-c4nc5cc6c(c(C#N)c5o4)CC[C@H]6N4CC[C@@H](C(=O)NS(=O)(=O)C5CC5)C4)c3Cl)c2Cl)cnc1CN1CC[C@@H](O)C1 [Compound 037] | ≤ 10 |

The remaining lines, values ahead:

| IC50 [nM] | Structure (SMILES) |
| --- | --- |
| ≤ 10 | Cc1c(Nc2nccc3cc(CN4CC[C@@H](O)C4)cnc23)cccc1-c1cccc(-c2nc3cc4c(c(C#N)c3o2)CC[C@@H]4N2CC[C@@H](C(=O)O)C2)c1C [Compound 006] |
| ≤ 10 | COc1nc(-c2cccc(-c3cccc(-c4nc5cc6c(c(C#N)c5o4)CCC6N4CC[C@@H](C(=O)O)C4)c3C)c2C)ccc1CN1CC[C@@H](O)C1 (stereo partly drawn) [Compound 008] |
| ≤ 10 | CN(CC(=O)O)[C@H]1CCc2c1cc1nc(-c3cccc(-c4cccc(Nc5nccc6cc(CN7CC[C@@H](O)C7)cnc56)c4Cl)c3Cl)oc1c2C#N [Compound 013] |
| ≤ 10 | Cc1c(Nc2nccc3cc(CN4CC[C@@H](O)C4)cnc23)cccc1-c1cccc(-c2cc3cc4c(c(C#N)c3o2)CCCC4N2CC[C@@H](C(=O)O)C2)c1C (stereo partly drawn) [Compound 017] |
| ≤ 10 | Cc1c(Nc2nccc3cc(CN4CC[C@@H](O)C4)cnc23)cccc1-c1cccc(-c2cc3cc4c(c(C#N)c3o2)CCCC4N2CC[C@@H](O)C2)c1C (stereo partly drawn) [Compound 019] |
| ≤ 10 | N#Cc1c2c(cc3cc(-c4cccc(-c5cccc(Nc6nccc7cc(CN8CC[C@@H](O)C8)cnc67)c5Cl)c4Cl)oc13)C(N1CC[C@@H](C(=O)O)C1)CC2 (stereo partly drawn) [Compound 021] |
| ≤ 10 | Cc1c(Nc2nccc3cc(CN4CC[C@@H](O)C4)cnc23)cccc1-c1cccc(-c2cc3cc4c(c(C#N)c3o2)CC[C@@H]4N)c1C [Compound 022] |
| ≤ 10 | Cc1c(Nc2nccc3cc(CN4CC[C@@H](O)C4)cnc23)cccc1-c1cccc(-c2cc3cc4c(c(C#N)c3o2)CCCC4NCCO)c1C (stereo partly drawn) [Compound 023] |
| ≤ 10 | Cc1c(-c2nc3cc4c(c(C#N)c3o2)CCC4N2CC[C@@H](C(=O)O)C2)cccc1-c1cccc(Nc2nccc3cc(CN4CC[C@@H](O)C4)cnc23)c1Cl (stereo partly drawn) [Compound 027] |
| ≤ 10 | Cc1c(Nc2nccc3cc(CN4CC[C@@H](O)C4)cnc23)cccc1-c1cccc(-c2nc3cc4c(c(C#N)c3o2)CCC4NCCC(=O)O)c1C (stereo partly drawn) [Compound 028] |
| ≤ 10 | N#Cc1c2c(cc3nc(-c4cccc(-c5cccc(Nc6nccc7cc(CN8CC[C@@H](O)C8)cnc67)c5Cl)c4Cl)oc13)[C@@H](N1CC[C@@H](C(=O)O)C1)CC2 [Compound 029] |
| ≤ 10 | Cc1c(Nc2nccc3cc(CN4CC[C@@H](O)C4)cnc23)cccc1-c1cccc(-c2nc3cc4c(c(C#N)c3o2)CC[C@H]4N2CC[C@@H](C(=O)NS(=O)(=O)C3CC3)C2)c1C [Compound 032] |
| ≤ 10 | COc1nc(-c2cccc(-c3cccc(-c4nc5cc6c(c(C#N)c5o4)CC[C@H]6N4CC[C@@H](C(=O)NS(=O)(=O)C5CC5)C4)c3C)c2C)ccc1CN1CC[C@@H](O)C1 [Compound 034] |
| ≤ 10 | COc1nc(-c2cccc(-c3cccc(-c4nc5cc6c(c(C#N)c5o4)CC[C@H]6N4CC[C@@H](C(=O)NS(=O)(=O)C5CC5)C4)c3C)c2C)cnc1CN1CC[C@@H](O)C1 [Compound 036] |
| ≤ 10 | COc1nc(-c2cccc(-c3cccc(-c4nc5cc6c(c(C#N)c5o4)CC[C@@H]6NCCC(=O)O)c3Cl)c2Cl)cnc1CN1CC[C@@H](O)C1 [Compound 038] |
| ≤ 10 | COc1nc(-c2cccc(-c3cccc(-c4nc5cc6c(c(C#N)c5o4)CC[C@H]6NCCC(=O)O)c3Cl)c2Cl)cnc1CN1CC[C@@H](O)C1 [Compound 039] |
| ≤ 10 | Cc1c(Nc2nccc3cc(CN4CC[C@@H](O)C4)cnc23)cccc1-c1cccc(-c2nc3cc4c(c(C#N)c3o2)CC[C@H]4N2CC[C@@H](C(=O)O)C2)c1Cl [Compound 040] |
